Reference: ChEMBL document CHEMBL5055639, “ω-Functionalized Lipid Prodrugs of HIV NtRTI Tenofovir with Enhanced Pharmacokinetic Properties” (J Med Chem, 2021)

What was measured:
[1] = Therapeutic index, ratio of CC50 for cytotoxicity against HEK293T cells to IC50 for antiviral activity against human immunodeficiency virus expressed in HEK293T cells; format: toxicity, cell-based; conditions: read-out: Ratio CC50/IC50
[2] = test system: HEK-293T; assay: Cytotoxicity against HEK293T cells assessed as reduction in cell viability measured after 48 hrs by CellTiter 96 Aqueous One Solution reagent based cell proliferation assay; conditions: human
[3] = Metabolic stability in human liver microsomes assessed as half life at 3 uM measured up to 30 min in presence of NADPH by LC-MS/MS analysis; format: ADME, Microsome; conditions: 0.5 h
[4] = molecular target: Cytochrome P450 2D6 (Homo sapiens, UniProt P10635); assay: Inhibition of human recombinant CYP2D6 expressed in insect microsome using (3-[2-([…]-N-methylammonium)-ethyl]-7-methoxy-4-methylcoumarin iodide as a substrate incubated for 30 mins followed by addition of NADPH regenerating system measured immediately by fluorescence based analysis; format: ADME, microsomes
Cytochrome P450 2D6, sequence (P10635 whole entry): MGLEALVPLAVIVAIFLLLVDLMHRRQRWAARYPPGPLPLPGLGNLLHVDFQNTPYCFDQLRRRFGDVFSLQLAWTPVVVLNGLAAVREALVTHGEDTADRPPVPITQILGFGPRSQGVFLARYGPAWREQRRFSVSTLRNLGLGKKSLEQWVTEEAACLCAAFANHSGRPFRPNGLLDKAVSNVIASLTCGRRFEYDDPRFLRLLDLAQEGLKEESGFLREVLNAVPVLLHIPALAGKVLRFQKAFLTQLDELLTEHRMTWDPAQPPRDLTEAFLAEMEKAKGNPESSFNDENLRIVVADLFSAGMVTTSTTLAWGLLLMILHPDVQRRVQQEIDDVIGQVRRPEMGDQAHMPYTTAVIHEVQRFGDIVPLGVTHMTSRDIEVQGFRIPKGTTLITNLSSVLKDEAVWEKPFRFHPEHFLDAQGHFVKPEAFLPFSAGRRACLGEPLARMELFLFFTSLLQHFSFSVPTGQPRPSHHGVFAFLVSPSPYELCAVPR

[5] = molecular target: Cytochrome P450 3A4 (Homo sapiens, UniProt P08684); assay: Inhibition of human recombinant CYP3A4 expressed in insect microsome using 7-benzyloxy-4-trifluoromethylcoumarin as a substrate incubated for 30 mins followed by addition of NADPH regenerating system measured immediately by fluorescence based analysis; format: ADME, microsomes
Cytochrome P450 3A4, sequence (P08684 whole entry): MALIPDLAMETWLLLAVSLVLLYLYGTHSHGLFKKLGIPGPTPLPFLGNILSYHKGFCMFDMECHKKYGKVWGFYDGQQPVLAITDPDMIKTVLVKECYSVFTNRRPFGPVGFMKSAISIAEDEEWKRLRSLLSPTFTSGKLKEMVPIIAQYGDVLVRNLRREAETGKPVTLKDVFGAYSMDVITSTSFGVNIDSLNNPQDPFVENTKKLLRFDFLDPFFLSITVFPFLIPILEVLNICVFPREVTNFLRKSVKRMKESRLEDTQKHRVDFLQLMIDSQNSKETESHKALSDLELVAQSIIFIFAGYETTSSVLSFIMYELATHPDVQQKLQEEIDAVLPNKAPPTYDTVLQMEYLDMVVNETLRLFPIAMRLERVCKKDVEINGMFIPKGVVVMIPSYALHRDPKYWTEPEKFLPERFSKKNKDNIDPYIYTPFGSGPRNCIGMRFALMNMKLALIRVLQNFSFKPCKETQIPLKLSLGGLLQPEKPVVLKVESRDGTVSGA

[6] = Plasma protein binding in C57BL/6 mouse at 10 mg/kg, po measured up to 24 hrs by LC-MS/MS; format: ADME, organism-based; conditions: read-out: PPB
[7] = Ratio of prodrug AUC(0 to 24 hrs) to TFV AUC(0 to 24 hrs) in C57BL/6 mouse plasma at 10 mg/kg, po measured up to 24 hrs by LC-MS/MS analysis; format: ADME, organism-based; conditions: in vivo
[8] = Tmax in C57BL/6 mouse liver at 10 mg/kg, po measured up to 24 hrs by LC-MS/MS analysis; format: ADME, organism-based
[9] = Prodrug conversion in C57BL/6 mouse plasma assessed as AUC(0 to 24 hrs) of TFV metabolite at 10 mg/kg, po measured up to 24 hrs by LC-MS/MS analysis; format: ADME, organism-based; parameters: time < 24 hrs, dose 10 mg/kg, route po; conditions: in vivo
[10] = Ratio of prodrug AUC(0 to 24 hrs) to TFV AUC(0 to 24 hrs) in C57BL/6 mouse liver at 10 mg/kg, po measured up to 24 hrs by LC-MS/MS analysis; format: ADME, organism-based; conditions: in vivo
[11] = Prodrug conversion in C57BL/6 mouse plasma assessed as Tmax of TFV metabolite at 10 mg/kg, po measured up to 24 hrs by LC-MS/MS analysis; format: ADME, organism-based; conditions: in vivo
[12] = test system: Human immunodeficiency virus; assay: Antiviral activity against human immunodeficiency virus expressed in HEK293T cells coexpressing firefly luciferase gene incubated for 48 hrs by Bright-Glo luciferase assay; format: functional, organism-based; conditions: Human immunodeficiency virus 1, HEK-293T
[13] = Cmax in C57BL/6 mouse plasma at 10 mg/kg, po measured up to 24 hrs by LC-MS/MS analysis; format: ADME, organism-based; parameters: dose 10 mg/kg, time < 24 hrs, route po; conditions: in vivo
[14] = Cmax in C57BL/6 mouse liver at 10 mg/kg, po measured up to 24 hrs by LC-MS/MS analysis; format: ADME, organism-based; parameters: time < 24 hrs, dose 10 mg/kg, route po; conditions: in vivo
[15] = AUC(0 to 24 hrs) in C57BL/6 mouse plasma at 10 mg/kg, po measured up to 24 hrs by LC-MS/MS analysis; format: ADME, organism-based; parameters: time < 24 hrs, dose 10 mg/kg, route po; conditions: in vivo
[16] = Prodrug conversion in C57BL/6 mouse liver assessed as Cmax of TFV metabolite at 10 mg/kg, po measured up to 24 hrs by LC-MS/MS analysis; format: ADME, organism-based; parameters: dose 10 mg/kg, time < 24 hrs, route po; conditions: in vivo
[17] = Tmax in C57BL/6 mouse plasma at 10 mg/kg, po measured up to 24 hrs by LC-MS/MS analysis; format: ADME, organism-based; conditions: in vivo
[18] = Prodrug conversion in C57BL/6 mouse liver assessed as Tmax of TFV metabolite at 10 mg/kg, po measured up to 24 hrs by LC-MS/MS analysis; format: ADME, organism-based; conditions: in vivo
[19] = Half life in C57BL/6 mouse plasma at 10 mg/kg, po measured up to 24 hrs by LC-MS/MS analysis; format: ADME, organism-based; conditions: in vivo
[20] = Prodrug conversion in C57BL/6 mouse liver assessed as AUC(0 to 24 hrs) of TFV metabolite at 10 mg/kg, po measured up to 24 hrs by LC-MS/MS analysis; format: ADME, organism-based; parameters: time < 24 hrs, dose 10 mg/kg, route po; conditions: in vivo
[21] = AUC(0 to 24 hrs) in C57BL/6 mouse liver at 10 mg/kg, po measured up to 24 hrs by LC-MS/MS analysis; format: ADME, organism-based; parameters: time < 24 hrs, dose 10 mg/kg, route po; conditions: in vivo
[22] = Prodrug conversion in C57BL/6 mouse plasma assessed as Cmax of TFV metabolite at 10 mg/kg, po measured up to 24 hrs by LC-MS/MS analysis; format: ADME, organism-based; parameters: time < 24 hrs, dose 10 mg/kg, route po; conditions: in vivo
[23] = AUC(0 to 24 hrs) in HBV patients at 50 mg, po qa administered for 28 days; format: ADME, organism-based; parameters: time 28 day, dose 50 mg, route po; conditions: human, in vivo
[24] = Half life in HBV patients at 50 mg, po qa administered for 28 days; format: ADME, organism-based; conditions: human, in vivo, time 28 day
[25] = test system: Human immunodeficiency virus; assay: Potency index, ratio of TFV IC50 to TXL IC50 for antiviral activity against human immunodeficiency virus expressed in HEK293T cells coexpressing firefly luciferase gene incubated for 48 hrs by Bright-Glo luciferase assay; format: functional
[26] = Prodrug conversion in […] patients assessed as Cmax of TFV metabolite at 50 mg, po qa administered for 28 days; format: ADME, organism-based; parameters: time 28 day, dose 50 mg, route po; conditions: human, in vivo, 672 h
[27] = Cmax in HBV patients at 50 mg, po qa administered for 28 days; format: ADME, organism-based; parameters: dose 50 mg, time 28 day, route po; conditions: human, in vivo
[28] = Tmax in HBV patients at 50 mg, po qa administered for 28 days; format: ADME, organism-based; conditions: human, in vivo, time 28 day
[29] = Prodrug conversion in […] patients assessed as AUC(0 to 24 hrs) of TFV metabolite at 50 mg, po qa administered for 28 days; format: ADME, organism-based; parameters: time 28 day, dose 50 mg, route po; conditions: human, in vivo, 672 h
[30] = C57BL/6, mouse, liver, read-out: Tmax

## C[C@H](Cn1cnc2c(N)ncnc21)OCP(=O)(O)OCCCCCCCCCCCCCCCCCC#CC(F)(F)F.N
[1]
  selectivity ratio: 423
[2]
  CC50: 78.7 µM
[3]
  t1/2: > 2 h
[4]
  IC50: > 20 µM
[5]
  IC50: > 20 µM

## C[C@H](Cn1cnc2c(N)ncnc21)OCP(=O)(O)OCCCOCCCCCCCCCCCCCC#CC(F)(F)F.N
[6]
  fraction unbound at 24 h: < 0.001
[7]
  Ratio AUC: 1.51
[1]
  selectivity ratio: > 4350
[8]; [30]
  Tmax: 1 h
[9]
  AUC: 425 ng·h/mL
[10]
  Ratio AUC: 0.06
[11]
  Tmax: 1 h
[12]
  IC50: 0.023 µM
[13]
  Cmax: 153 ng/mL
[14]
  Cmax: 558 ng/mL
[2]
  CC50: > 100 µM
[3]
  t1/2: > 2 h
[15]
  AUC: 643 ng·h/mL
[16]
  Cmax: 1380 ng/mL
[17]
  Tmax: 2 h
[4]
  IC50: > 20 µM
[18]
  Tmax: 4 h
[19]
  t1/2: 2.69 h
[20]
  AUC: 21900 ng·h/mL
[21]
  AUC: 1310 ng·h/mL
[22]
  Cmax: 42.8 ng/mL

## C[C@H](Cn1cnc2c(N)ncnc21)OCP(=O)(O)OCCCCCCCCCCCCCCCCC#C[Si](C)(C)C.N
[1]
  selectivity ratio: 792
[12]
  IC50: 0.086 µM
[2]
  CC50: 68.1 µM
[3]
  t1/2: > 2 h

## C#CCCCCCCCCCCCCCCOCCCOP(=O)(O)CO[C@H](C)Cn1cnc2c(N)ncnc21.N
[1]
  selectivity ratio: > 758
[12]
  IC50: 0.132 µM
[2]
  CC50: > 100 µM
[3]
  t1/2: > 2 h
[4]
  IC50: > 20 µM
[5]
  IC50: > 20 µM

## CCCCCCCCCCCCCCCCSCCCOP(=O)(O)CO[C@H](C)Cn1cnc2c(N)ncnc21.N
[1]
  selectivity ratio: 4980
[12]
  IC50: 0.01 µM
[2]
  CC50: 49.8 µM
[3]
  t1/2: 0.7 h

## C#CCCCCCCCCCCCCCCCCCCOP(=O)(O)CO[C@H](C)Cn1cnc2c(N)ncnc21.N
[1]
  selectivity ratio: 84
[12]
  IC50: 1.18 µM
[2]
  CC50: 99.5 µM
[3]
  t1/2: > 2 h
[5]
  IC50: > 50 µM

## C[C@H](Cn1cnc2c(N)ncnc21)OCP(=O)(O)OCCCOCCCCCCCCCCCCC#C[Si](C)(C)C.N
[6]
  fraction unbound at 24 h: < 0.001
[8]; [30]
  Tmax: 4 h
[9]
  AUC: 142 ng·h/mL
[11]
  Tmax: 12 h
[12]
  IC50: 0.069 µM
[13]
  Cmax: 120 ng/mL
[14]
  Cmax: 8130 ng/mL
[3]
  t1/2: > 2 h
[15]
  AUC: 550 ng·h/mL
[16]
  Cmax: 671 ng/mL
[17]
  Tmax: 2 h
[4]
  IC50: 21.7 µM
[18]
  Tmax: 4 h
[19]
  t1/2: 2.49 h
[20]
  AUC: 11200 ng·h/mL
[21]
  AUC: 101000 ng·h/mL
[5]
  IC50: > 20 µM
[22]
  Cmax: 14.1 ng/mL

## CCCCCCCCCCCCCCCCOCCCOP(=O)(O)CO[C@H](C)Cn1cnc2c(N)ncnc21.N
[6]
  fraction unbound at 24 h: < 0.001
[23]
  AUC at 672 h: 110 ng·h/mL
[7]
  Ratio AUC: 2.29
[1]
  selectivity ratio: 5420
[24]
  half-life: 1.5 h
[25]
  Ratio IC50: 89
[8]; mouse, in vivo, po, 10 mg/kg, 24 h
  Tmax: 1 h
[26]
  Cmax: 8.5 ng/mL
[9]
  AUC: 132 ng·h/mL
[10]
  Ratio AUC: 0.19
[11]
  Tmax: 2 h
[13]
  Cmax: 125 ng/mL
[27]
  Cmax: 51 ng/mL
[14]
  Cmax: 2730 ng/mL
[2]
  CC50: 97.6 µM
[3]
  t1/2: 0.7 h
[15]
  AUC: 301 ng·h/mL
[16]
  Cmax: 1460 ng/mL
[17]
  Tmax: 1 h
[18]
  Tmax: 17.3 h
[19]
  t1/2: 2.92 h
[28]
  Tmax: 1.5 h
[20]
  AUC: 26100 ng·h/mL
[21]
  AUC: 4970 ng·h/mL
[29]
  AUC: 136 ng·h/mL
[22]
  Cmax: 19.6 ng/mL
